One series deals with SARS-CoV Mac1 (Severe acute respiratory syndrome coronavirus, UniProt P0C6X7). The class given is binding. Particulars: read-out: AS assay IC50 SARS-CoV.
The target of the next series is MERS-CoV Mac1 (Middle East respiratory syndrome-related coronavirus, UniProt K9N7C7). Type of series: binding. Particulars: read-out: IC50 AS MERS.
For series [1], the target named is T1, SARS-CoV-2 Mac1 (Severe acute respiratory syndrome coronavirus 2, UniProt P0DTD1). Description: Differential scanning fluorimetry. The class given is binding. (In general: DSF heats the sample and reads unfolding from a dye or from intrinsic fluorescence.)
Series [2] deals with T1, SARS-CoV-2 Mac1. The following applies: read-out: IC50 Mac1 mono-ARH activity; ref Dasovich et al., 2022; cited from earlier work.
In the next series the test system is mammalian cells. The following applies: cited from earlier work.
The test system of the next series is Mac1. The following applies: ref Ni et al., 2021; cited from earlier work.

Sequence of MERS-CoV Mac1 (K9N7C7 1110-1276 limits assumed): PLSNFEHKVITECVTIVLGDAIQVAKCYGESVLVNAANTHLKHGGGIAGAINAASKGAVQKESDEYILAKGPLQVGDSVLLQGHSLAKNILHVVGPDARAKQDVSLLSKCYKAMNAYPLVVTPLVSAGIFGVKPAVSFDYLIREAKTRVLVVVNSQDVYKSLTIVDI

As to `Nc1ncnc2c1ncn2[C@@H]1O[C@H](COP(=O)(O)OP(=O)(O)OC[C@H]2OC(O)[C@H](O)[C@@H]2O)[C@@H](O)[C@H]1O` (stereo partly drawn) [ADP-ribose], the results for the IC50 at SARS-CoV Mac1 and on MERS-CoV Mac1 were 240 nM and 1250 ± 230 nM, respectively.

Consider `Nc1ncnc2c1ncn2[C@@H]1O[C@H](COP(=O)(O)OP(=O)(O)OP(=O)(O)O)[C@@H](O)[C@H]1O` [ATP], for which, on SARS-CoV-2 Mac1 [1], the “thermal shift of Mac1 in DSF (in words)” value was “no effect”.

On to `Cc1nc(Nc2ncc(C(=O)Nc3c(C)cccc3Cl)s2)cc(N2CCN(CCO)CC2)n1` [Dasatinib], for which the IC50 (as a rule, the concentration at which inhibition is half-maximal) on SARS-CoV-2 Mac1 [2] was about 50000 nM. Besides, in the series on mammalian cells, the “toxicity to mammalian cells (in words)” value is “toxic to mammalian cells”.

Turning to `N#C[C@@]1(c2ccc3c(N)ncnn23)O[C@H](CO)[C@@H](O)[C@H]1O` [GS-441524], the “binding to Mac1 (in words)” value with Mac1 was “bound to Mac1”.

The values are drawn from paper PMC9119168 (Antiviral Research, 2022).
